Laboratory results reported in patent US20060183759A1, “Tissue transglutaminase inhibitors” (priority 2004, published 2006).
Like-named read-outs stand apart in the source and are kept apart here.

Key:
[1] = molecular target: T1, transglutaminase 2 (TGase 2) (Homo sapiens, UniProt P21980); experiment: TGase 2 transpeptidase fluorescence assay: incorporation of KXD into N,N-dimethylated-casein (Std and FPC formats); type: biochemical; conditions: for TGase 2 inhibitory activity, SAR comment in words (relative to parent compound): qualitative comparison
T1 sequence (P21980 1-687): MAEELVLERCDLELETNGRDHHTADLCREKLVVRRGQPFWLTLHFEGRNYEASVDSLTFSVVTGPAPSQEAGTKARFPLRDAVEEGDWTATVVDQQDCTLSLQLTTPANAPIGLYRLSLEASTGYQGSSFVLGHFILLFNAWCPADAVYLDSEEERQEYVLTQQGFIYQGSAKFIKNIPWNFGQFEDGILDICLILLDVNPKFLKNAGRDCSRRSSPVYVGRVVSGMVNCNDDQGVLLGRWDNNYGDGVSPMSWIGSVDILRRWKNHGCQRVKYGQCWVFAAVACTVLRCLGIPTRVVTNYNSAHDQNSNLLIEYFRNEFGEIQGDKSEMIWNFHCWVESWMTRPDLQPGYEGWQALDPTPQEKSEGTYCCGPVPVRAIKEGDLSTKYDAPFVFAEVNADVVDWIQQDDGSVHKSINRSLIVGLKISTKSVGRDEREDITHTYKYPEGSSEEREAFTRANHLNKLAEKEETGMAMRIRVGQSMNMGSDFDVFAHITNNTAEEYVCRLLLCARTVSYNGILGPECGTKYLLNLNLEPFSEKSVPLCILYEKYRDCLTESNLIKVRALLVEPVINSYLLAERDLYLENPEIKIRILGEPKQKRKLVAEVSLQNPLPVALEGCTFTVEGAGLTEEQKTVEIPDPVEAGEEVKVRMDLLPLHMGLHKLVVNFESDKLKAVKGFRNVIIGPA
Procedure: Transpeptidase activity was monitored as the increase in fluorescence intensity (FI) that accompanies incorporation of the dansylated Lys derivative, α-N-Boc-Lys-CH2-CH2-dansyl (KXD), into the protein substrate, N,N-dimethylated-casein (NMC).
Therefore, a method was used in which full progress curves (FPC) were recorded for the TGase-catalyzed reaction of KXD with NMC in the presence of inhibitor (Table 1-4). Reactions were initiated by enzyme addition to a solution of substrate and inhibitor. […] From such progress curves, IC50 values were calculated using the following equation: IC50=[I]/{(vc/vss)−1}. Progress curves recorded at several inhibitor concentrations were used to determine FPC IC50 values (Table 1-4).

[2] = molecular target: T1, transglutaminase 2 (TGase 2); experiment: as above; type: biochemical; conditions: standard format (Std): reactions terminated after 60 min, FI recorded, four-parameter fit
[3] = full progress curves (FPC), IC50=[I]/{(vc/vss)−1}, from steady-state velocity, read-out: IC50 (μM, FPC)
[4] = summary of FPC values, read-out: FPC IC50 values

NNC(=O)CSc1nc2ccc(-c3ccccc3)cc2c(=O)n1-c1cccc(F)c1 [986-04, [3-(3-Fluorophenyl)-4-oxo-6-phenyl-3,4-dihydroquinazolin-2-ylsulfanyl]acetic acid hydrazide]
IC50 [1, 3]: 1.5 µM | TGase 2 inhibitory activity, SAR comment in words (relative to parent compound) [1]: Activity was partly restored

NNC(=O)CNc1nc2scc(-c3ccccc3)c2c(=O)n1-c1ccccc1 [986-05, (4-Oxo-3,5-diphenyl-3,4-dihydrothieno[2,3-d]pyrimidin-2-ylamino)acetic acid hydrazide]
IC50 [1, 3]: 3.7 µM | TGase 2 inhibitory activity, SAR comment in words (relative to parent compound) [1]: decreased activity

CN(CC(=O)NN)c1nc2scc(-c3ccccc3)c2c(=O)n1-c1ccccc1 [986-06, [Methyl-(4-oxo-3,5-diphenyl-3,4-dihydrothieno[2,3-d]pyrimidin-2-yl) -amino]acetic acid hydrazide]
IC50 [2]: > 20 µM

Cn1c(SCC(=O)NN)nc2scc(-c3ccccc3)c2c1=O [986-10, (3-Methyl-4-oxo-5-phenyl-3,4-dihydrothieno[2,3-d]pyrimidin-2-ylsulfanyl)acetic acid hydrazide]
IC50 [2]: 8.4 µM

Cc1csc2nc(SCC(=O)NN)n(-c3ccc(F)cc3)c(=O)c12 [986-11, [3-(4-Fluorophenyl)-5-methyl-4-oxo-3,4-dihydrothieno[2,3-d]pyrimidin-2-ylsulfanyl]acetic acid hydrazide]
IC50 [2]: 6.3 µM

NNC(=O)CSc1nc2scc(-c3ccccc3)c2c(=O)n1Cc1ccccc1 [986-14, (3-Benzyl-4-oxo-5-phenyl-3,4-dihydrothieno[2,3-d]pyrimidin-2-ylsulfanyl)acetic acid hydrazide]
IC50 [2]: 2.3 µM

COc1ccc(-n2c(SCC(=O)NN)nc3scc(-c4ccccc4)c3c2=O)cc1 [986-15, [3-(4-Methoxyphenyl)-4-oxo-5-phenyl-3,4-dihydrothieno[2,3-d]pyrimidin-2-ylsulfanyl]acetic acid hydrazide]
IC50 [2]: 2.1 µM

NNC(=O)CSc1nc2scc(-c3ccccc3)c2c(=O)n1C1CCCCC1 [986-17, (3-Cyclohexyl-4-oxo-5-phenyl-3,4-dihydrothieno[2,3-d]pyrimidin-2-ylsulfanyl)acetic acid hydrazide]
IC50 [2]: 2.6 µM

COc1ccccc1-n1c(SCC(=O)NN)nc2scc(-c3ccccc3)c2c1=O [986-20, [3-(2-Methoxyphenyl)-4-oxo-5-phenyl-3,4-dihydrothieno[2,3-d]pyrimidin-2-ylsulfanyl]acetic acid hydrazide]
IC50 [2]: 2 µM

NNC(=O)CSc1nc2scc(-c3ccccc3)c2c(=O)n1-c1ccccc1Cl [986-23, [3-(2-Chlorophenyl)-4-oxo-5-phenyl-3,4-dihydrothieno[2,3-d]pyrimidin-2-ylsulfanyl]acetic acid hydrazide]
IC50 [2]: 1.8 µM

NNC(=O)CSc1nc2scc(-c3ccccc3)c2c(=O)n1-c1cccc(Cl)c1 [986-24, [3-(3-Chlorophenyl)-4-oxo-5-phenyl-3,4-dihydrothieno[2,3-d]pyrimidin-2-ylsulfanyl]acetic acid hydrazide]
IC50 [2]: 1.5 µM

NNC(=O)CSc1nc2scc(-c3ccccc3)c2c(=O)n1-c1ccc(Cl)cc1 [986-25, [3-(4-Chlorophenyl)-4-oxo-5-phenyl-3,4-dihydrothieno[2,3-d]pyrimidin-2-ylsulfanyl]acetic acid hydrazide]
IC50 [2]: 1.8 µM

COc1ccccc1-c1csc2nc(SCC(=O)NN)n(-c3cccc(F)c3)c(=O)c12 [986-31, [3-(3-Fluorophenyl)-5-(2-methoxyphenyl)-4-oxo-3,4-dihydrothieno[2,3-d]pyrimidin-2-ylsulfanyl]acetic acid hydrazide]
IC50 [1, 3]: 0.14 µM | IC50 [1, 4]: < 0.16 µM

COc1ccc(-c2csc3nc(SCC(=O)NN)n(-c4cccc(F)c4)c(=O)c23)cc1 [986-33, [3-(3-Fluorophenyl)-5-(4-methoxyphenyl)-4-oxo-3,4-dihydrothieno[2,3-d]pyrimidin-2-ylsulfanyl]acetic acid hydrazide]
IC50 [1, 3]: 0.28 µM

NNC(=O)CSc1nc2scc(-c3ccccc3O)c2c(=O)n1-c1cccc(F)c1 [986-34, [3-(3-Fluorophenyl)-5-(2-hydroxyphenyl)-4-oxo-3,4-dihydrothieno[2,3-d]pyrimidin-2-ylsulfanyl]acetic acid hydrazide]
IC50 [2]: 1.4 µM

CC(C)c1csc2nc(SCC(=O)NN)n(-c3cccc(F)c3)c(=O)c12 [986-36, [3-(3-Fluorophenyl)-5-isopropyl-4-oxo-3,4-dihydrothieno[2,3-d]pyrimidin-2-ylsulfanyl]acetic acid hydrazide]
IC50 [1, 3]: 0.23 µM | TGase 2 inhibitory activity, SAR comment in words (relative to parent compound) [1]: no loss in activity

NNC(=O)CSc1nc2scc(-c3ccccc3F)c2c(=O)n1-c1cccc(F)c1 [986-37, [3-(3-Fluorophenyl)-5-(2-fluorophenyl)-4-oxo-3,4-dihydrothieno[2,3-d]pyrimidin-2-ylsulfanyl]acetic acid hydrazide]
IC50 [1, 3]: 0.14 µM | IC50 [1, 4]: < 0.16 µM

NNC(=O)CSc1nc2scc(-c3cccc(F)c3)c2c(=O)n1-c1cccc(F)c1 [986-38, [3,5-Bis-(3-fluorophenyl)-4-oxo-3,4-dihydrothieno[2,3-d]pyrimidin-2-ylsulfanyl]acetic acid hydrazide]
IC50 [1, 3]: 0.29 µM

NNC(=O)CSc1nc2sc(Cl)c(-c3ccccc3F)c2c(=O)n1-c1cccc(F)c1 [986-39, [6-Chloro-3-(3-fluorophenyl)-5-(2-fluorophenyl)-4-oxo-3,4-dihydrothieno[2,3-d]pyrimidin-2-ylsulfanyl]acetic acid hydrazide]
IC50 [1, 3]: 0.13 µM | TGase 2 inhibitory activity, SAR comment in words (relative to parent compound) [1]: increased activity | IC50 [1, 4]: < 0.16 µM

Cc1sc2nc(SCC(=O)NN)n(-c3cccc(F)c3)c(=O)c2c1-c1ccccc1F [986-40, [3-(3-Fluorophenyl)-5-(2-fluorophenyl)-6-methyl-4-oxo-3,4-dihydrothieno[2,3-d]pyrimidin-2-ylsulfanyl]acetic acid hydrazide]
IC50 [1, 3]: 0.15 µM | IC50 [1, 4]: < 0.16 µM

CC(C)c1sc2nc(SCC(=O)NN)n(-c3cccc(F)c3)c(=O)c2c1-c1ccccc1F [986-41, [3-(3-Fluorophenyl)-5-(2-fluorophenyl)-6-isopropyl-4-oxo-3,4-dihydrothieno[2,3-d]pyrimidin-2-ylsulfanyl]acetic acid hydrazide]
IC50 [1, 3]: 0.9 µM | TGase 2 inhibitory activity, SAR comment in words (relative to parent compound) [1]: detrimental

NNC(=O)CSc1nc2sc3c(c2c(=O)n1-c1cccc(F)c1)CCCC3 [986-42, [3-(3-Fluorophenyl)-4-oxo-3,4,5,6,7,8-hexahydrobenzo[4,5]thieno[2,3-d]pyrimidin-2-ylsulfanyl]acetic acid hydrazide]
IC50 [1, 3]: 0.45 µM

CC1CCCc2sc3nc(SCC(=O)NN)n(-c4cccc(F)c4)c(=O)c3c21 (stereo not shown) [986-43, [3-(3-Fluorophenyl)-5-methyl-4-oxo-3,4,5,6,7,8-hexahydrobenzo[4,5]thieno[2,3-d]pyrimidin-2-ylsulfanyl]acetic acid hydrazide]
IC50 [1, 3]: 0.2 µM

NNC(=O)CSc1nc2sc3c(c2c(=O)n1-c1cccc(F)c1)C(Cc1ccccc1)CCC3 (stereo not shown) [986-45, [5-Benzyl-3-(3-fluorophenyl)-4-oxo-3,4,5,6,7,8-hexahydrobenzo[4,5]thieno[2,3-d]pyrimidin-2-ylsulfanyl]acetic acid hydrazide]
IC50 [2]: 2.3 µM

CC(C)(C)OC(=O)N1CCc2c(sc3nc(SCC(=O)NN)n(-c4cccc(F)c4)c(=O)c23)C1 [986-46, 3-(3-Fluorophenyl)-2-hydrazinocarbonylmethylsulfanyl-4-oxo-3,5,6,8-tetrahydro-4H-9-thia-1,3,7-triazafluorene-7-carboxylic acid tert-butyl ester]
IC50 [1, 3]: 1.1 µM

NNC(=O)CSc1nc2sc3c(c2c(=O)n1-c1cccc(F)c1)CCNC3 [986-47, [3-(3-Fluorophenyl)-4-oxo-3,4,5,6,7,8-hexahydro-9-thia-1,3,7-triazafluoren-2-ylsulfanyl]acetic acid hydrazide]
IC50 [1, 3]: 7.1 µM

CN1CCc2c(sc3nc(SCC(=O)NN)n(-c4cccc(F)c4)c(=O)c23)C1 [986-48, [3-(3-Fluorophenyl)-7-methyl-4-oxo-3,4,5,6,7,8-hexahydro-9-thia-1,3,7-triazafluoren-2-ylsulfanyl]acetic acid hydrazide]
IC50 [1, 3]: 0.53 µM

CCCN1CCc2c(sc3nc(SCC(=O)NN)n(-c4cccc(F)c4)c(=O)c23)C1 [986-49, [3-(3-Fluorophenyl)-4-oxo-7-propyl-3,4,5,6,7,8-hexahydro-9-thia-1,3,7-triazafluoren-2-ylsulfanyl]acetic acid hydrazide]
IC50 [2]: 6 µM
